Tests used:
Test in all cases: Endpoint RT-PCR analysis of alternatively spliced mRNAs in cultured cells
Format in all cases: cell-based, human
[1] = tested on: FADS2 exon 6; settings: FADS2 exon 6, sequence CTGAgtaagt; GM03813 cells, 24 hours; without compound 100
Method: (§1) Endpoint RT-PCR Analysis of Alternatively Spliced mRNAs in Cultured Cells GM03813 cells derived from a patient with SMA type I (Coriell Institute) were plated at 5,000 cells/well in 200 μl DMEM with 10% FBS in 96-well plates, and incubated for 6 hours in a cell culture incubator (37° C., 5% CO2, 100% relative humidity). Cells were then treated with Compound 702 at different concentrations (in 0.5% DMSO) in duplicate for 24 hours. After removal of the supernatant, cells were lysed in Cells-To-Ct lysis buffer (Life Technologies, Inc.). Reverse transcription was performed using 5 μl of cell lysate and the iScript RT enzyme kit (Bio-Rad Laboratories, Inc). PCR was performed using 5 μl of cDNA and Platinum Taq HiFi DNA Polymerase (Life Technologies, Inc.) under the following PCR conditions: Step 1: 94° C. (2 min), Step 2: 94° C. (30 sec), Step 3: 55° C. (30 sec), Step 4: 68° C. (1 min), then repeat Steps 2 to 4 for 33 cycles, then hold at 4° C. PCR products were separated on 2% agarose E-gels, stained with ethidium bromide and visualized using a gel imager (UVP). [table]

[2] = tested on: COL5A2 exon 32; settings: COL5A2 exon 32, sequence TAGAgtaagt; GM03813 cells, 24 hours; without compound 100
Method: as §1

[3] = tested on: GGCT exon 2; settings: GGCT exon 2, sequence ATGAgtaggt; GM03813 cells, 24 hours; without compound 40
Method: as §1

[4] = tested on: COL1A1 exon 32; settings: COL1A1 exon 32, sequence CAGAgtaagt; GM03813 cells, 24 hours; without compound 90
Method: as §1

[5] = tested on: COL3A1 exon 46; settings: COL3A1 exon 46, sequence CAGAgtaagt; GM03813 cells, 24 hours; without compound 100
Method: as §1

[6] = tested on: MADD exon 21; settings: MADD exon 21, sequence CAGAgtaagg; GM03813 cells, 24 hours; without compound 0
Method: as §1

[7] = tested on: FOXM1 exon 7A […]C (34 nucleotides); settings: sequence ATGAgtaagt, GM03813 cells, 24 hours, without compound 0
Method: as §1

[8] = tested on: DIAPH3 exon 11; settings: DIAPH3 exon 11, sequence TTGAatatcc; GM03813 cells, 24 hours; without compound 100
Method: as §1

[9] = tested on: ARMCX6 exon 3; settings: ARMCX6 exon 3, sequence TAGAgtatga; GM03813 cells, 24 hours; without compound 0
Method: as §1

[10] = tested on: COL1A2 exon 22; settings: COL1A2 exon 22, sequence CAGAgtaagt; GM03813 cells, 24 hours; without compound 100
Method: as §1

[11] = tested on: COL1A2 exon 21; settings: COL1A2 exon 21, sequence GAGAgtaggt; GM03813 cells, 24 hours; without compound 100
Method: as §1

[12] = tested on: PRKDC exon 11; settings: PRKDC exon 11, sequence AGGAgtatgt; GM03813 cells, 24 hours; without compound 100
Method: as §1

[13] = tested on: APLP2 exon 7; settings: APLP2 exon 7, sequence ATGAgtaagt; GM03813 cells, 24 hours; without compound 10
Method: as §1

[14] = tested on: RCC 1 exon 4; settings: RCC 1 exon 4, sequence AGAGgtaaga; GM03813 cells, 24 hours; without compound 90
Method: as §1

[15] = tested on: COL1A1 exon 30; settings: COL1A1 exon 30, sequence AAGAgtaagt; GM03813 cells, 24 hours; without compound 60
Method: as §1

[16] = tested on: COL1A1 exon 46; settings: COL1A1 exon 46, sequence CCGAgtaagt; GM03813 cells, 24 hours; without compound 100
Method: as §1

[17] = tested on: FN1 exon 35; settings: FN1 exon 35, sequence GAGAgtaagt; GM03813 cells, 24 hours; without compound 100
Method: as §1

[18] = tested on: LARP7 exon 1; settings: LARP7 exon 1, sequence CGGAgtaagt; GM03813 cells, 24 hours; without compound 0
Method: as §1

[19] = tested on: COL3A1 exon 10; settings: COL3A1 exon 10, sequence CAGAgtaagt; GM03813 cells, 24 hours; without compound 100
Method: as §1

[20] = tested on: LAMA2 exon 5; settings: LAMA2 exon 5, sequence AAGAgtaagt; GM03813 cells, 24 hours; without compound 100
Method: as §1

[21] = tested on: STRN3 exon 8; settings: STRN3 exon 8, sequence AAGAgtaagt; GM03813 cells, 24 hours; without compound 10
Method: as §1

[22] = tested on: SMN2 exon 7; settings: SMN2 exon 7, sequence AGGAgtaagt; GM03813 cells, 24 hours; % inclusion of exon without compound 40
Method: as §1

[23] = tested on: LARP7 exon 2; settings: LARP7 exon 2, sequence AAGAgtaaga; GM03813 cells, 24 hours; without compound 10
Method: as §1

[24] = tested on: COL1A2 exon 30; settings: COL1A2 exon 30, sequence AAGAgtaagt; GM03813 cells, 24 hours; without compound 100
Method: as §1

[25] = tested on: PRKDC exon 51; settings: PRKDC exon 51, sequence GCGAgtacgt; GM03813 cells, 24 hours; without compound 100
Method: as §1

[26] = tested on: PARP1 exon 22; settings: PARP1 exon 22, sequence ACGAgtatcc; GM03813 cells, 24 hours; without compound 100
Method: as §1

[27] = tested on: COL1A1 exon 11; settings: COL1A1 exon 11, sequence CAGAgtgagt; GM03813 cells, 24 hours; without compound 100
Method: as §1

[28] = tested on: GALC exon 5; settings: GALC exon 5, sequence TGGAgttagt; GM03813 cells, 24 hours; without compound 90
Method: as §1

[29] = tested on: COL5A2 exon 49; settings: COL5A2 exon 49, sequence AAGAgtaagt; GM03813 cells, 24 hours; without compound 90
Method: as §1

[30] = tested on: VPS29 exon 2; settings: VPS29 exon 2, sequence CAGAgtaagt; GM03813 cells, 24 hours; without compound 40
Method: as §1

[31] = tested on: ERGIC3 exon 8; settings: ERGIC3 exon 8, sequence GAGAgtaagt; GM03813 cells, 24 hours; without compound 0
Method: as §1

[32] = tested on: COL5A2 exon 13; settings: COL5A2 exon 13, sequence CCGAgtaagt; GM03813 cells, 24 hours; without compound 100
Method: as §1

[33] = tested on: COL5A2 exon 35; settings: COL5A2 exon 35, sequence AAGAgtaagt; GM03813 cells, 24 hours; without compound 100
Method: as §1

[34] = tested on: SMN2 exon 5; settings: SMN2 exon 5, sequence ACCAgtaagt; GM03813 cells, 24 hours; without compound 50
Method: as §1

[35] = tested on: COL1A1 exon 5; settings: COL1A1 exon 5, sequence AGGAgtaagt; GM03813 cells, 24 hours; without compound 0
Method: as §1

[36] = tested on: COL5A2 exon 34; settings: COL5A2 exon 34, sequence CAGAgtaagt; GM03813 cells, 24 hours; without compound 100
Method: as §1

[37] = tested on: FOXM1 exon 7A (114 nucleotides); settings: sequence ATCAgtaagt, GM03813 cells, 24 hours, without compound 0
Method: as §1

CCN1CCC(c2cc(C)c3nc(-c4cc5c(C)nc(C)cn5n4)cc(=O)n3c2)CC1 [Compound 702]
% Inclusion of Exon with Compound [1]: no change | % Inclusion of Exon with Compound [2]: no change | % Inclusion of Exon with Compound [3]: 95% | % Inclusion of Exon with Compound [4]: no change | % Inclusion of Exon with Compound [5]: no change | % Inclusion of Exon with Compound [6]: 5% | % Inclusion of Exon with Compound [7]: 90% | % Inclusion of Exon with Compound [8]: no change | % Inclusion of Exon with Compound [9]: no change | % Inclusion of Exon with Compound [10]: no change | % Inclusion of Exon with Compound [11]: no change | % Inclusion of Exon with Compound [12]: no change | % Inclusion of Exon with Compound [13]: 30% | % Inclusion of Exon with Compound [14]: no change | % Inclusion of Exon with Compound [15]: 90% | % Inclusion of Exon with Compound [16]: no change | % Inclusion of Exon with Compound [17]: no change | % Inclusion of Exon with Compound [18]: 10% | % Inclusion of Exon with Compound [19]: no change | % Inclusion of Exon with Compound [20]: no change | % Inclusion of Exon with Compound [21]: 100% | % Inclusion of Exon with Compound [22]: 100% | % Inclusion of Exon with Compound [23]: 40% | % Inclusion of Exon with Compound [24]: no change | % Inclusion of Exon with Compound [25]: no change | % Inclusion of Exon with Compound [26]: no change | % Inclusion of Exon with Compound [27]: no change | % Inclusion of Exon with Compound [28]: no change | % Inclusion of Exon with Compound [29]: no change | % Inclusion of Exon with Compound [30]: 100% | % Inclusion of Exon with Compound [31]: 10% | % Inclusion of Exon with Compound [32]: no change | % Inclusion of Exon with Compound [33]: no change | % Inclusion of Exon with Compound [34]: no change | % Inclusion of Exon with Compound [35]: no change | % Inclusion of Exon with Compound [36]: no change | % Inclusion of Exon with Compound [37]: 10%

Reference: patent US11602567B2, “Methods for modulating RNA splicing” (PTC Therapeutics, Inc., priority 2015, dated 2023)
